Data on 34 molecules can be found in patent publication US11090304B2 (Amgen Inc., priority 2018, dated 2021).

The target in this assay is GDP-bound KRAS protein (aa 1-169), containing both G12C and C118A amino acid substitutions (Homo sapiens, UniProt P01116, C118A/G12C). Briefly: Coupled nucleotide exchange assay (SOS-mediated, AlphaScreen). The assay is classed as biochemical. As to conditions: 5 min compound pre-incubation.
Chain of GDP-bound KRAS protein (aa 1-169), containing both G12C and C118A amino acid substitutions (P01116 1-169 isoform P01116-2 G12C/C118A): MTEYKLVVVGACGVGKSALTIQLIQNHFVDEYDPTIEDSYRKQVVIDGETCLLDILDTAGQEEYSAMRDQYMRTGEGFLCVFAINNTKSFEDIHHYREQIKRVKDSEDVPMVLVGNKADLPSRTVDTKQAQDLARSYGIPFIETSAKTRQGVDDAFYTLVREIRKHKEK
On to `C=CC(=O)N1CCN(c2nc(=O)n(-c3c(C)cccc3C(C)C)c3nc(-c4c(O)cccc4F)c(F)cc23)C(C)(C)C1` (single isomer, unassigned) [Example 63-4], for which the “Coupled exchange IC50 (5 min)” value is given as 1.15 | nda μM.

Turning to `C=CC(=O)N1CCN(c2nc(=O)n(-c3ccccc3C(C)C)c3nc(-c4cccs4)c(Cl)cc23)[C@@H](C)C1` (single isomer, unassigned) [Example 67-4-1], the “Coupled exchange IC50 (5 min)” value was 7.34 | nda μM.

For the molecule `C=CC(=O)N1CCN(c2nc(=O)n(-c3ccccc3C(C)C)c3nc(-c4cccs4)c(Cl)cc23)[C@@H](C)C1` (single isomer, unassigned) [Example 67-4-2], the “Coupled exchange IC50 (5 min)” value is 1.91 | nda μM.

Regarding `C=CC(=O)N1CCN(c2nc(=O)n(-c3c(C)cccc3C(C)C)c3nc(-c4c(C)ccc5[nH]ncc45)c(F)cc23)[C@@H](C)C1` (single isomer, unassigned) [Example 68-2-1], the “Coupled exchange IC50 (5 min)” value is listed as 5.29 | nda μM.

Regarding `C=CC(=O)N1CCN(c2nc(=O)n(-c3ccccc3C(C)C)c3nc(N4CCCCC4)c(Cl)cc23)[C@@H](C)C1` (single isomer, unassigned) [Example 69-1-1], the “Coupled exchange IC50 (5 min)” value was 44.1 | nda μM.

On to `C=CC(=O)N1CCN(c2nc(=O)n(-c3c(C)cccc3C(C)C)c3nc(-c4nc(N)ccc4Cl)c(F)cc23)[C@@H](C)C1` (single isomer, unassigned) [Example 71-1-2], for which the “Coupled exchange IC50 (5 min)” value is reported as 4.89 | nda μM.

For the molecule `C=CC(=O)N1CCN(c2nc(=O)n(-c3c(C)cccc3C(C)C)c3nc(-c4nc(N)cc5ccccc45)c(F)cc23)[C@@H](C)C1` (single isomer, unassigned) [Example 71-2-1], the “Coupled exchange IC50 (5 min)” value is 8.7 | nda μM.

In the case of `C=CC(=O)N1CCN(c2nc(=O)n(-c3c(C)cccc3C(C)C)c3nc(-c4nc(N)cc5ccccc45)c(F)cc23)[C@@H](C)C1` (single isomer, unassigned) [Example 71-2-2], the “Coupled exchange IC50 (5 min)” value is recorded as 1.06 | nda μM.

Take `C=CC(=O)N1CCN(c2nc(=O)n(-c3ccccc3C(C)C)c3nc(-c4ccccc4F)c(C)cc23)[C@@H](C)C1` (single isomer, unassigned) [Example 74-1-1]: the “Coupled exchange IC50 (5 min)” value was 2.16 | nda μM.

As for `C=CC(=O)N1CCN(c2nc(=O)n(-c3c(C)ccnc3C(C)C)c3nc(-c4c(O)cccc4F)c(C)cc23)[C@@H](C)C1` (single isomer, unassigned) [Example 74-3-2], the “Coupled exchange IC50 (5 min)” value is 1.12 | nda μM.

As to `C=CC(=O)NC1CN(c2nc(=O)n(-c3c(C)ccnc3C(C)C)c3nc(-c4c(O)cccc4F)c(F)cc23)C1` (single isomer, unassigned) [Example 75-6, (M)-N-(1-(6-fluoro-7-(2-fluoro-6-hydroxyphenyl)-1-(4-methyl-2-(2-propanyl)-3-pyridinyl)-2-oxo-1,2-dihydropyrido[2,3-d]pyrimidin-4-yl)-3-azetidinyl)-2-propenamide], the “Coupled exchange IC50 (5 min)” value is recorded as 85 | nda μM.

On to `C=CC(=O)N1CCN(c2nc(=O)n(-c3c(C)ccnc3C(C)C)c3nc(-c4c(O)cccc4F)c(F)cc23)[C@H](C(F)F)C1` (single isomer, unassigned) [Example 75-9-1, (M)-4-((2S or 2R)-2-(difluoromethyl)-4-(2-propenoyl)-1-piperazinyl)-6-fluoro-7-(2-fluoro-6-hydroxyphenyl)-1-(4-methyl-2-(2-propanyl)-3-pyridinyl)pyrido[2,3-d]pyrimidin-2(1H)-one], for which the “Coupled exchange IC50 (5 min)” value is 1.87 | nda μM.

Take `C=CC(=O)N1CCN(c2nc(=O)n(-c3c(C)ccnc3C(C)C)c3nc(-c4ccccc4F)c(Cl)cc23)[C@H](C(F)F)C1` (single isomer, unassigned) [Example 78-3-1]: the “Coupled exchange IC50 (5 min)” value is on record as 1.19 | nda μM.

Regarding `C=CC(=O)N1CCN(c2nc(=O)n(-c3c(C)ccnc3C(C)C)c3nc(-c4ccccc4F)c(Cl)cc23)C2(CC2)C1` (single isomer, unassigned) [Example 78-4, (M)-6-chloro-7-(2-fluorophenyl)-1-(4-methyl-2-(2-propanyl)-3-pyridinyl)-4-(7-(2-propenoyl)-4,7-diazaspiro[2.5]octan-4-yl)pyrido[2,3-d]pyrimidin-2(1H)-one], the “Coupled exchange IC50 (5 min)” value was 30.3 | nda μM.

`C=CC(=O)N1CCN(c2nc(=O)n(-c3c(C)ccnc3C(C)C)c3nc(-c4ccccc4F)c(Cl)cc23)[C@H](C(F)(F)F)C1` (single isomer, unassigned) [Example 78-9-1]: the “Coupled exchange IC50 (5 min)” value is 1.26 | nda μM.

Regarding `C=CC(=O)N1CCN(c2nc(=O)n(-c3c(C)ccnc3C(C)C)c3nc(-c4ccccc4F)c(Cl)cc23)[C@@H](C(F)(F)F)C1` (single isomer, unassigned) [Example 78-9-2], the “Coupled exchange IC50 (5 min)” value was 0.423 | nda μM.

For the molecule `C=CC(=O)NCCNc1nc(=O)n(-c2c(C)ccnc2C(C)C)c2nc(-c3ccccc3F)c(Cl)cc12` (single isomer, unassigned) [Example 78-12, (M)-N-(2-((6-chloro-7-(2-fluorophenyl)-1-(4-methyl-2-(2-propanyl)-3-pyridinyl)-2-oxo-1,2-dihydropyrido[2,3-d]pyrimidin-4-yl)amino)ethyl)-2-propenamide], the “Coupled exchange IC50 (5 min)” value is listed as 15.4 | nda μM.

Consider `C=CC(=O)N1C[C@H]2CC[C@@H](C1)N2c1nc(=O)n(-c2c(C)ccnc2C(C)C)c2nc(-c3ccccc3F)c(Cl)cc12` (single isomer, unassigned) [Example 78-13, (M)-6-chloro-7-(2-fluorophenyl)-1-(4-methyl-2-(2-propanyl)-3-pyridinyl)-4-(3-(2-propenoyl)-3,8-diazabicyclo[3.2.1]octan-8-yl)pyrido[2,3-d]pyrimidin-2(1H)-one], for which the “Coupled exchange IC50 (5 min)” value is reported as 2.22 | nda μM.

On to `C=CC(=O)N1C[C@@H](C)N(c2nc(=O)n(-c3c(C)ccnc3C(C)C)c3nc(-c4ccccc4F)c(Cl)cc23)[C@H](C)C1` (single isomer, unassigned) [Example 78-16], for which the “Coupled exchange IC50 (5 min)” value was 16.6 | nda μM.

Take `C=CC(=O)N1C[C@H]2C[C@@H](C1)N2c1nc(=O)n(-c2c(C)ccnc2C(C)C)c2nc(-c3ccccc3F)c(Cl)cc12` (single isomer, unassigned) [Example 78-17, (M)-6-chloro-7-(2-fluorophenyl)-1-(4-methyl-2-(2-propanyl)-3-pyridinyl)-4-(3-(2-propenoyl)-3,6-diazabicyclo[3.1.1]heptan-6-yl)pyrido[2,3-d]pyrimidin-2(1H)-one]: the “Coupled exchange IC50 (5 min)” value was 26 | nda μM.

Consider `C=CC(=O)N1CCN(c2nc(=O)n(-c3c(C)cc(CO)cc3C(C)C)c3nc(-c4ccccc4F)c(Cl)cc23)[C@@H](C)C1` (single isomer, unassigned) [Example 80-2-1], for which the “Coupled exchange IC50 (5 min)” value is given as 0.824 | nda μM.

On to `C=CC(=O)N1CCN(c2nc(=O)n(-c3ccccc3C(C)C)c3nc(-c4c(F)cccc4C#N)c(Cl)cc23)[C@@H](C)C1` (single isomer, unassigned) [Example 98-2], for which the “Coupled exchange IC50 (5 min)” value is 3.38 | nda μM.

As for `C=CC(=O)N1CCN(c2nc(=O)n(-c3c(C)cccc3C(C)C)c3nc(-c4ccccc4F)c(C)cc23)[C@@H](C)C1` (single isomer, unassigned) [Example 102-1], the “Coupled exchange IC50 (5 min)” value is given as 3.45 | nda μM.

`C=CC(=O)N1CCN(c2nc(=O)n(-c3ccccc3C(C)C)c3cc(-c4ccccc4F)c(Cl)nc23)[C@@H](C)C1` (single isomer, unassigned) [Example 110-1]: the “Coupled exchange IC50 (5 min)” value is reported as 3.22 | nda μM.

As for `C=CC(=O)N1CCN(c2nc(=O)n(-c3c(C)ccnc3C(C)C)c3nc(-c4ccccc4F)c(Cl)nc23)[C@@H](C)C1` (single isomer, unassigned) [Example 111-2], the “Coupled exchange IC50 (5 min)” value is given as 0.86 | nda μM.

Regarding `C=CC(=O)N1CCN(c2nc(=O)n(-c3c(C)cccc3C(C)C)c3nc(-c4cc(Cl)ccc4O)c(F)cc23)[C@@H](C)C1` (single isomer, unassigned) [Example 113], the “Coupled exchange IC50 (5 min)” value is recorded as 1.02 | nda μM.

For the molecule `C=CC(=O)N1CCN(c2nc(=O)n(-c3c(C)cccc3C(C)C)c3nc(-c4cc(Cl)ccc4O)c(F)cc23)[C@@H](C)C1` (single isomer, unassigned) [Example 114], the “Coupled exchange IC50 (5 min)” value is on record as 6.435 | nda μM.

As to `C=CC(=O)N1CCN(c2nc(=O)n(-c3c(C(C)C)ncnc3N(C)C)c3nc(-c4ccccc4F)c(Cl)cc23)[C@@H](C)C1` (single isomer, unassigned) [Example 140-2], the “Coupled exchange IC50 (5 min)” value was 0.677 | nda μM.

In the case of `C=CC(=O)N1CCN(c2nc(=O)n(-c3c(C(N)=O)cccc3C(C)C)c3nc(-c4ccccc4F)c(Cl)cc23)[C@@H](C)C1` (single isomer, unassigned) [Example 142-1], the “Coupled exchange IC50 (5 min)” value was 23.9 | nda μM.

Turning to `C=CC(=O)N1CCN(c2nc(=O)n(-c3c(N)cccc3C(C)C)c3nc(-c4ccccc4F)c(Cl)cc23)[C@@H](C)C1` (single isomer, unassigned) [Example 155-2], the “Coupled exchange IC50 (5 min)” value is 13.5 | nda μM.

For the molecule `C=CC(=O)N1CCN(c2nc(=O)n(-c3c(C)cccc3C(C)C)c3nc(-c4nc(N)cc5ccccc45)c(F)cc23)[C@@H](C)C1` [71-2, 7-(3-amino-1-isoquinolinyl)-6-fluoro-1-(2-methyl-6-(2-propanyl)phenyl)-4-((2S)-2-methyl-4-(2-propenoyl)-1-piperazinyl)pyrido[2,3-d]pyrimidin-2(1H)-one], the “Coupled exchange IC50 (5 min)” value is listed as 2.17 | nda μM.

Consider `C=CC(=O)N1CC(N(C)c2nc(=O)n(-c3c(C)ccnc3C(C)C)c3nc(-c4ccccc4F)c(Cl)cc23)C1` [76-2], for which the “Coupled exchange IC50 (5 min)” value is on record as 20.1 | nda μM.

`C=CC(=O)N1CCN(c2nc(=O)c(-c3ccccc3C)c3cc(-c4ccccc4F)c(C)nn23)[C@@H](C)C1` [77-2, 3-(2-fluorophenyl)-2-methyl-5-(2-methylphenyl)-8-((2S)-2-methyl-4-(2-propenoyl)-1-piperazinyl)-6H-pyrimido[1,6-b]pyridazin-6-one]: the “Coupled exchange IC50 (5 min)” value is on record as 77.7 | nda μM.

Consider `C=CC(=O)N1CCN(c2nc(CN(C)C)c(-c3ccccc3C(C)C)c3nc(-c4ccccc4F)c(Cl)cc23)CC1` [86-2, 1-(4-(3-chloro-7-((dimethylamino)methyl)-2-(2-fluorophenyl)-8-(2-(2-propanyl)phenyl)-1,6-naphthyridin-5-yl)-1-piperazinyl)-2-propen-1-one], for which the “Coupled exchange IC50 (5 min)” value was 6.6 | nda μM.
